According to patent US4041168A, “Nitroimidazole derivative with antibacterial activity” (Gruppo Lepetit S.p.A., priority 1975, dated 1977):

How the values were obtained:
[1] = toxicity (LD50) per os in mice, substantially according to Lichtfield and Wilcoxon; conditions: mouse, in vivo, po
Description: This activity, expressed as an ED50 value, is moreover coupled with a very low toxicity, expressed as an LD50 value, which was determined substantially according to the method described by Lichtfield and Wilcoxon, Journ. Pharm. Exp. Ther., 96, 99, 1949. In representative experiments, the following results have been obtained: […]

Trichomonas vaginalis = experiment: in vivo activity against experimental infection in mice caused by Trichomonas vaginalis (ED50, Therapeutical Index); conditions: for ED50: po; for ED50 / ED50 mg/kg per os mice: per os, mice, Trichomonas vaginalis infection; for in vivo anti-Trichomonas activity (in words): experimental infection in mice; for Therapeutical Index (comparison in words): mouse, in vivo
Description: (§1) This activity, expressed as an ED50 value, is moreover coupled with a very low toxicity, expressed as an LD50 value, which was determined substantially according to the method described by Lichtfield and Wilcoxon, Journ. Pharm. Exp. Ther., 96, 99, 1949. In representative experiments, the following results have been obtained:
(§2) which indicate that the compound of the invention is a very useful and promising anti-Trichomonas agent. This becomes even more evident if one considers its Therapeutical Index (TI). Said parameter, which is mathematically expressed by the following ratio LD50 /ED50 gives a reliable idea about the safety of a drug and, considering how it is calculated, it is clear that the higher the TI, the safer the drug is; a high value of the Therapeutical Index means in fact a low effective dose (ED50) in comparison with the lethal dose (LD50). […] As an example, the 5-isopropyl-1-methyl-2-nitroimidazole, described in U.S. Pat. No. 3,499,967 and therein mentioned as one of the most outstanding in vivo active 2-nitroimidazoles against Trichomonas vaginalis, has a Therapeutical Index of 102.
(§3) 1. In the present experiment there are compared the anti-Trichomonas in vivo activities and the Therapeutical Indexes (TI) of the compound of the invention (hereinafter referred to as compound A) and four 5-hydroxy alkyl-2-nitroimidazoles described or falling within prior art patents. In these four compounds the hydroxy group is bound to a primary or secondary carbon atom which not necessarily is linked to the imidazole nucleus.
(§4) 2. In the following set of experiments there are evaluated the variations of Therapeutical Index (positive or negative) which are observed when some 5-alkyl-2 -nitroimidazoles known from the prior art are compared with the corresponding 5-hydroxyalkyl-2-nitroimidazoles, including the new compound A. Obviously all of the compounds are tested for their in vivo activity against Trichomonas vaginalis. […] With reference to the hereinbelow reported table and the first four pair of compounds, the results clearly indicate that the variations of Therapeutical Index which are observed are slightly positive or even negative i.e., that the Therapeutical Index of the known 5-hydroxyalkyl-2-nitroimidazoles either is worse than or is substantially the same as that of the corresponding 5-alkyl compounds: this practically means that no appreciable therapeutical results have been obtained, and that, considering the last pair of substances i.e., compound K and compound A (the compound of the invention), an unrelevant or unfavorable variation of the Therapeutical Index would have to be expected as well. On the contrary, a dramatically favorable and unpredictable variation of this parameter is observed and, clearly, this effect is to be interpreted as a remarkable improvement of the therapeutical (anti-Trichomonas) properties:
(§5) 3. In the third experiment there are evaluated the effects on the Therapeutical Index of the substitution with two methyl groups of two hydrogen atoms of the methyl radical at the 5-position of compound F namely [drawing 17] in comparison with the effects on the same parameter caused by the substitution with two methyl groups of the two hydrogen atoms of the hydroxymethyl group of compound B, namely [drawing 18] The compounds are obviously tested for their anti-Trichomonas in vivo properties.

[2] = as above; conditions: mouse, in vivo, po; ratio LD50/ED50, per os mice; read-out: Therapeutical Index (TI)
Description: as §1, §2, §3, §4, §5

[3] = usual in vitro antibacterial tests
Excerpt: Though the compound of the present invention is formally embraced by the foregoing general formula, it is to be noted that in the cited Belgian Patent only concrete examples of 5-hydroxy lower alkyl substituents are reported, wherein the hydroxy lower alkyl groups are 2-hydroxyethyl or 2-hydroxypropyl, i.e. only primary or secondary alcohols are disclosed.

Structure (SMILES) | LD50 [1] [mg/kg] | ED50 (Trichomonas vaginalis) [mg/kg] | selectivity ratio [2] | other results
Cn1c(CCO)cnc1[N+](=O)[O-] | 1500 | 35 | 43 | 
Cc1cnc([N+](=O)[O-])n1C | 246 | 10.5 | 23.4 | 
Cn1c(C(C)(C)O)cnc1[N+](=O)[O-] [Compound A, 5-[(1-hydroxy-1-methyl)ethyl]-1-methyl-2-nitroimidazole] | 730 | 2.3 | 317 | in vivo anti-Trichomonas activity (in words) (Trichomonas vaginalis): far highest in vivo activity; in vivo anti-Trichomonas activity (in words) (Trichomonas vaginalis; listed as compound of the invention): outstanding in vivo activity; antibacterial properties in vitro (in words) [3]: very interesting antibacterial properties
Cn1c(CO)cnc1[N+](=O)[O-] [Compound B, 5-hydroxymethyl-1-methyl-2-nitroimidazole, reference compound] |  |  |  | Therapeutical Index (comparison in words) (Trichomonas vaginalis): much lower than that of compound A
COC(C)(C)c1cnc([N+](=O)[O-])n1C [Compound of formula V, 5-[(1-methoxy-1-methyl)ethyl]-1-methyl-2-nitroimidazole] |  | 2.18 | 160 | LD50 mg/kg per os mice [1]: 350 mg/kg; in vivo anti-Trichomonas activity (in words) (Trichomonas vaginalis): valuable degree of in vivo anti-Trichomonas activity; Therapeutical Index (comparison in words) (Trichomonas vaginalis): not so high as that of the compound of formula I
CC(C)c1cnc([N+](=O)[O-])n1C [K, 5-isopropyl-1-methyl-2-nitroimidazole, reference compound] |  |  | 102 | 
Cn1c(CO)cnc1[N+](=O)[O-] [drawing 3] | 350 | 14.1 | 24.8 | 
CC(O)Cc1cnc([N+](=O)[O-])n1C (stereo not drawn) [drawing 5] | 670 | 17 | 39.4 | 
CC(CO)c1cnc([N+](=O)[O-])n1C (stereo not drawn) [drawing 6] | 776 | 20 | 38.8 | 
CC(O)Cc1cnc([N+](=O)[O-])n1C (stereo not drawn) [drawing 12] |  |  |  | LD50 mg/kg per os mice [1]: 670 mg/kg; ED50 mg/kg per os mice (Trichomonas vaginalis): 17 mg/kg
CC(C)c1cnc([N+](=O)[O-])n1C [drawing 13] |  | 2.6 |  | LD50 mg/kg per os mice [1]: 265 mg/kg
CC(CO)c1cnc([N+](=O)[O-])n1C (stereo not drawn) [drawing 14] |  |  |  | ED50 mg/kg per os mice (Trichomonas vaginalis): 20 mg/kg
CCc1cnc([N+](=O)[O-])n1C [reference compound] | 372 | 9.8 | 38 | 
CCCc1cnc([N+](=O)[O-])n1C [reference compound] | 560 | 26 | 21.6 | 
